In patent publication US20100189660A1, “METHODS FOR THE DETECTION OF FATTY-ACYLATED PROTEIN” (Genentech, Inc., priority 2009, published 2010):

Columns and labels:
MDCK cells [1] = test: Hydroxylamine-sensitive assay of alkyne-labeled proteins (thioester vs amide linkage); type: cell-based, canine; settings: blots treated with 5% hydroxylamine for 72 h
Experimental: These experiments validate the utility of C14 and C16 ω-alkynyl fatty-acyls as probes for protein myristoylation and palmitoylation, respectively.
(§1) Western blotting: Labeled protein lysates were resolved by SDS page using a 4-20% Tris-glycine gel (1 h 10 min at 180V). For immunoblotting of biotin-labeled proteins after electrophoresis, proteins were transferred onto a nitrocellulose membrane, which was blocked with PBS, 0.1% Tween-20 [PBST] and 5% non-fat dried milk for 2 h at RT or overnight at 4° C. The membrane was washed three times with PBST (5 minutes each), and incubated with streptavidin-horseradish peroxidase (Invitrogen Zymed #43-4323, 1:1250 in PBST) for 1 h at RT. The membrane was washed with PBST three times (10 min each) and developed using enhanced chemiluminescence according to manufacturer's recommendation (Amersham Biosciences). For the hydroxylamine-sensitive assay, following the transfer of proteins to nitrocellulose membranes, the membranes were incubated 65 to 72 h at RT with PBST and 5% NH2OH (Sigma-Aldrich). After the hydroxylamine treatment, the membranes were blocked with 5% non-fat dried milk for 2 h at RT or overnight at 4° C. and analyzed by streptavidin blot as described above.

MDCK cells [2] = test: Metabolic incorporation of ω-alkynyl fatty-acyls onto cellular proteins, click with biotin-azide, streptavidin-HRP western blot; type: cell-based, canine; settings: for degree of protein incorporation / time dependence of levels of labeled protein bands: 100 μM; for degree of protein incorporation: 24 h, western blot with streptavidin-HRP; for time dependence of levels of labeled protein bands: within 6 h; for dose dependence of metabolic incorporation: increasing concentration, at 4 h
Excerpt: Upon preparing the cellular proteome, the alkynyl group incorporated onto acylated proteins was chemoselectively ligated to azide-tagged biotin (for synthesis see Example 2) or fluorophore by a Cu(I)-catalyzed Huisgen alkyne-azide cycloaddition reaction (See, Wang, Q. et al. J. Am. Chem. Soc. 125, 3192-3193 (2003)) (FIG. 1C). The conjugated proteins were separated by gel electrophoresis and analyzed by Western blot using streptavidin-linked horseradish peroxidase (FIG. 2A). […] This was reasonable considering that the majority of protein lipid modifications in cells comprise myristoylation and palmitoylation.
Labeling and detection of lipoproteins in cell extracts: The ω-alkynl fatty-acyl compounds used for the examples were dissolved in DMSO to generate 50 mM stock solutions, and were stored at −80° C. Before cell treatment, the analogs were dissolved in DMEM serum-free media supplemented with 5% BSA (fatty acid-free—SIGMA EC232-936-2) and glutamax (for Raw and MDCK cell lines) at a final concentration of 100 μM. The fatty acid-media solutions were sonicated for 15 minutes at room temperature and then allowed to pre-complex for 15 min at RT.
Cells were seeded with complete media onto 6-well plates (8×10^5 cells/2 ml/well). They were incubated for 24 h before the treatment. Then the growth medium was removed, cells washed once with PBS and 2 mL of the ω-alkynyl fatty-acyls containing media was added to cells and incubated at 37° C. in a 5% CO2 humidified incubator. […] To obtain a final proteome concentration of 2 mg/ml (protein concentration determined by BCA kit) cell lysates were concentrated by centrifugation for 15 minutes at 14,000 rpm at 4° C. with the Centrifugal Ultrafiltration Devices (Pall centrifugal devices MWCO 3K, Nanosep device, cat # P/N ODOO3C34). Protein extracts were then subjected to the probe labeling reaction in 25 μL volume, for 1 h at RT (room temperature), at final concentrations of the following reagents (See, Speers, A. E. & Cravatt, B. F. Profiling enzyme activities in vivo using click chemistry methods. Chem Biol 11, 535-46 (2004); Hsu, T. L. et al. Alkynyl sugar analogs for the labeling and visualization of glycoconjugates in cells. Proc Natl Acad Sci USA 104, 2614-9 (2007)): 0.1 mM biotin-azide, 1 mM Tris (2-carboxyethyl)phosphine hydrochloride (TCEP, Sigma-Aldrich) dissolved in water, 0.2 mM Tris[(1-benzyl-1H-1,2,3-triazol-4-yl)methyl]amine (TBTA, Sigma-Aldrich) dissolved in DMSO/t-butanol (20%/80%) and 1 mM CuSO4 in PBS. The order of addition of the reagents to the protein extracts is important for the reaction and has to be followed as described above.
as §1

MDCK cells [3] = test: Specificity of incorporation: cycloheximide treatment and competition with myristic and palmitic acids; type: cell-based, canine; settings: for probe specificity from competition experiments with myristic and palmitic acids: increasing concentration of myristic (MA) or palmitic acid (PA)
Experimental: MDCK cells were treated with C14 ω-alkynyl fatty acid (100 μM) in the presence or absence cycloheximide (100 μg/ml) for 5 h. Cellular proteome was prepared, reacted with biotin-azide, resolved by gel electrophoresis and detected by western blotting with streptavidin-HRP, as described using methods described herein. Asterisks denote bands labeled by treatment with probe but not in DMSO control; (B, C) Dose-dependent competition of C14 and C16 ω-alkynyl fatty acids with myristic (MA) and palmitic acids (PA), respectively. MDCK cells were treated with ω-alkynyl fatty acid probes as indicated in the presence of increasing concentration of myristic (MA) and palmitic acids (PA). Samples were processed as described herein.
The ω-alkynyl fatty-acyls were metabolically incorporated onto cellular proteins in a time- and dose-dependent manner.
Cells were seeded with complete media onto 6-well plates (8×10^5 cells/2 ml/well). They were incubated for 24 h before the treatment. Then the growth medium was removed, cells washed once with PBS and 2 mL of the ω-alkynyl fatty-acyls containing media was added to cells and incubated at 37° C. in a 5% CO2 humidified incubator. After 24 hours, the cells were washed three times with cold PBS and cell extracts were prepared by resuspending the cells in 400 μL of lysis buffer (1% Nonidet P-40/150 mM NaCl/protease and phosphatase inhibitor/100 mM sodium phosphate, pH 7.5). To obtain a final proteome concentration of 2 mg/ml (protein concentration determined by BCA kit) cell lysates were concentrated by centrifugation for 15 minutes at 14,000 rpm at 4° C. with the Centrifugal Ultrafiltration Devices (Pall centrifugal devices MWCO 3K, Nanosep device, cat # P/N ODOO3C34). […]
Western blotting: Labeled protein lysates were resolved by SDS page using a 4-20% Tris-glycine gel (1 h 10 min at 180V). […] After the hydroxylamine treatment, the membranes were blocked with 5% non-fat dried milk for 2 h at RT or overnight at 4° C. and analyzed by streptavidin blot as described above.

[4] = test system: PC3 prostate cancer cells; test: Fluorescence microscopy of cellular fatty-acylated proteins; type: cell-based; settings: for subcellular distribution of probe: PC3 cells, 100 μM, 3 h, confocal microscopy
Experimental: Cells were treated with DMSO or ω-alkynyl fatty-acyls (100 μM) as indicated for 3 h. The cells were then fixed, permeabilized and click reacted with rhodamine-azide and imaged by epifluorescence microscopy. […] All images were acquired the same way using 63× oil objective. The fluorescence along the z-axis is shown on top of each confocal section (Scale bar, 10 μm); (J, K, L) The distribution of lipid-modified proteins in different cellular states can be monitored by fluorescence imaging. […] The fluorescence along the z-axis is shown on the left-hand side of panel (K).
Cells were then fixed, permeabilized and click reacted with biotin-azide followed with treatment with streptavidin-conjugated Alexa488 and (optionally Hoechst stain for nuclei staining) and imaged using epifluorescence microscopy technique as described herein.
Fluorescence microscopy: Cells were seeded onto 12-well plates (4×10^5 cells/well) containing coverslips and incubated for 24 h before treatment. The growth medium was removed and cells were washed once with PBS before adding 1 mL of medium containing the co-alkynyl fatty acid at the indicated concentration. After 24-48 h incubation at 37° C./5% CO2, cells were washed three times with PBS to remove excess probe (ω-alkynyl fatty acid) and fixed with 4% paraformaldehyde (PFA) for 10 min at RT. Cells were then permeabilized with PBS/0.1% triton X-100 for 1-2 min at RT, washed extensively with the following reagents: 0.1 mM biotin-azide or rhodamine-azide, 1 mM Tris (2-carboxyethyl)phosphine hydrochloride (TCEP) dissolved in water, and 1 mM CuSO4 in PBS at RT for 1 h. The labeled cells were rinsed extensively with PBS and blocked in PBS/5% BSA for 45 min at RT. Cells were stained with streptavidin-conjugated AlexaFluor 488 (Invitrogen cat # S32354, 1:500) in PBS/5% BSA for 45 min at RT and nuclei were stained with Hoechst 33342 (MP # H21492; 1:10,000 in PBS) for 10 min at RT. For labeling with rhodamine-azide, cells were directly stained with Hoechst.

[5] = PC3 cells undergoing cell division, tubulin marker

In the case of C#CCCCCCCCC(=O)O [C11], the “sensitivity of labeled proteins to hydroxylamine / type of linkage” value (MDCK cells [1]) is reported as “predominantly attach via thioester bonds”.
C#CCCCCCCCCCCCC(=O)O [C14, 13-Tetradecyn-1-oic acid] was tested, and the “sensitivity of labeled proteins to hydroxylamine / type of linkage” value (MDCK cells [1]) was “resistance to hydroxylamine treatment”, the “degree of protein incorporation” value (MDCK cells [2]) was “highest degree of protein incorporation” and the “time dependence of levels of labeled protein bands” value (MDCK cells [2]) was “time-dependent increase in the levels of labeled protein bands”. For the same compound, the “dose dependence of metabolic incorporation” value (MDCK cells [2]) was “dose-dependent metabolic incorporation”, the “probe specificity from competition experiments with myristic and palmitic acids” value (MDCK cells [3]) was “specific probes for protein N-myristoylation” and the “subcellular distribution of probe” value [4] was “distributed in a punctuate pattern outside the nucleus”.
With C#CCCCCCCCCCCCCCC(=O)O [C16, 15-Hexadecyn-1-oic acid] the “sensitivity of labeled proteins to hydroxylamine / type of linkage” value (MDCK cells [1]) was “substantial sensitivity to hydroxylamine”, the “degree of protein incorporation” value (MDCK cells [2]) was “highest degree of protein incorporation” and the “time dependence of levels of labeled protein bands” value (MDCK cells [2]) was “time-dependent increase in the levels of labeled protein bands”. The “dose dependence of metabolic incorporation” value (MDCK cells [2]) was “dose-dependent metabolic incorporation”, the “probe specificity from competition experiments with myristic and palmitic acids” value (MDCK cells [3]) was “S-palmitoylation” and the “distribution of labeled proteins during cytokinesis” value [4, 5] was “concentrate at the cleavage furrow”. The “distribution of labeled proteins in metaphase cells” value [4, 5] was “at the plasma membrane and in dense structures around the spindle and throughout the body” and the “subcellular distribution of probe” value [4] was “distributed in a punctuate pattern outside the nucleus”.
In the case of C[C@@H]1C[C@@H]([C@H](O)CC2CC(=O)NC(=O)C2)C(=O)[C@@H](C)C1 [cycloheximide, reference compound], the “effect on protein labeling with C14” value (MDCK cells [3]; C14 100 μM, cycloheximide 100 μg/ml, 5 h) is reported as “inhibits protein labeling with C14”.
